# Laboratory results published in patent US20230183193A1, “4-DIFLUOROMETHYL BENZOYL AMIDES WITH HERBICIDAL ACTION” (BAYER CROPSCIENCE AKTIENGESELLSCHAFT, priority 2017, published 2023).
# Key:
# Format in all cases: in vivo
# [1] = tested on: Viola tricolor; experiment: Pre-emergence herbicidal action, VIOTR; conditions: for Herbicidal efficacy against VIOTR: Table L; for herbicidal activity VIOTR: scored visually after 3 weeks vs untreated controls
# Summary of the method: (§1)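 Percent herbicidal activity rated by eye 3 weeks after pre-emergence soil-surface application, compared with untreated pots. Seeds sat under sandy loam; sprays carried 0.2% wetting agent.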
# [2] = tested on: Matricaria inodora; experiment: Post-emergence herbicidal action, MATIN; conditions: dosage 20 g/ha, Table M
# Method: (§2) Seeds of monocotyledonous and dicotyledonous weed and crop plants are laid out in sandy loam soil in wood-fiber pots, covered with soil and cultivated in a greenhouse under good growth conditions. 2 to 3 weeks after sowing, the test plants are treated at the one-leaf stage. The compounds of the invention, formulated in the form of wettable powders (WP) or as emulsion concentrates (EC), are then sprayed onto the green parts of the plants in the form of an aqueous suspension or emulsion at a water application rate equating to […], with addition of 0.2% wetting agent. After the test plants have been left to stand in the greenhouse under optimal growth conditions for about 3 weeks, the action of the preparations is assessed visually in comparison to untreated controls (herbicidal action in percent (%): 100% activity=the plants have died, 0% activity=like control plants). […] At the same time, inventive compounds leave Gramineae crops such as barley, wheat, rye, millet/sorghum, corn or rice virtually undamaged when applied post-emergence, even at high active compound dosages. In addition, some substances are also harmless to dicotyledonous crops such as soya, cotton, oilseed rape, sugar beet or potatoes. Some of the compounds according to the invention have high selectivity and are therefore suitable for controlling unwanted vegetation in agricultural crops by the post-emergence method. The data of Tables C and D below illustrate, in an exemplary manner, the […] herbicidal action of the compounds according to the invention, the herbicidal activity being stated in percent.
# (§3) For comparison, the herbicidal activity of numerous compounds according to the invention was tested with the structurally closest compounds known from the documents WO 2011/035874, WO 2012/028579 and WO 2012/126932, by the pre- and post-emergence method.
# [3] = tested on: Amaranthus retroflexus; experiment: Pre-emergence herbicidal action, AMARE; conditions: dosage 320 g/ha, scored visually after 3 weeks vs untreated controls
# Summary of the method: as §1
# [4] = tested on: Cyperus serotinus; experiment: Pre-emergence herbicidal action, CYPES; conditions: for Herbicidal efficacy against CYPES: Table L
# Summary of the method: as §1
# [5] = tested on: Polygonum convolvulus; experiment: Pre-emergence herbicidal action, POLCO; conditions: Table L
# Summary of the method: as §1
# [6] = tested on: Setaria viridis; experiment: Post-emergence herbicidal action, SETVI; conditions: for herbicidal activity SETVI: 80 g/ha, Table C; for Herbicidal efficacy against SETVI: dosage 20 g/ha, Table M
# Summary of the method: (§4)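 Herbicidal effect is rated visually as percent versus untreated plants (100% = dead, 0% = like control) about 3 weeks after spraying. Plants were sown in sandy loam in the greenhouse and sprayed on green parts at the one-leaf stage, 2 to 3 weeks post-sowing.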
# [7] = tested on: Stellaria media; experiment: Post-emergence herbicidal action, STEME; conditions: 80 g/ha, Table D
# Summary of the method: as §4
# [8] = tested on: Matricaria inodora; experiment: Pre-emergence herbicidal action, MATIN; conditions: dosage 320 g/ha, scored visually after 3 weeks vs untreated controls
# Summary of the method: as §1
# [9] = tested on: Stellaria media; experiment: Pre-emergence herbicidal action, STEME; conditions: dosage 320 g/ha, scored visually after 3 weeks vs untreated controls
# Summary of the method: as §1
# [10] = tested on: LOLMU; experiment: Pre-emergence herbicidal action, LOLMU; conditions: Table L
# [11] = tested on: Veronica persica; experiment: Post-emergence herbicidal action, VERPE; conditions: dosage 20 g/ha, Table M
# Method: as §2, §3
# [12] = tested on: Alopecurus myosuroides; experiment: Pre-emergence herbicidal action, ALOMY; conditions: for Herbicidal efficacy against ALOMY: Table L
# Summary of the method: as §1
# [13] = tested on: Alopecurus myosuroides; experiment: Post-emergence herbicidal action, ALOMY
# Summary of the method: as §4
# [14] = tested on: Amaranthus retroflexus; experiment: Post-emergence herbicidal action, AMARE; conditions: 80 g/ha, Table D
# Summary of the method: as §4
# [15] = tested on: Viola tricolor; experiment: Post-emergence herbicidal action, VIOTR; conditions: for herbicidal activity VIOTR: 80 g/ha, Table D; for Herbicidal efficacy against VIOTR: dosage 20 g/ha, Table M
# Summary of the method: as §4
# [16] = tested on: Setaria viridis; experiment: Pre-emergence herbicidal action, SETVI; conditions: for Herbicidal efficacy against SETVI: Table L
# Summary of the method: as §1
# [17] = tested on: Abutilon theophrasti; experiment: Post-emergence herbicidal action, ABUTH; conditions: 80 g/ha, Table D
# Summary of the method: as §4
# [18] = tested on: Avena fatua; experiment: Post-emergence herbicidal action, AVEFA; conditions: for Herbicidal efficacy against AVEFA: dosage 20 g/ha, Table M
# Summary of the method: as §4
# [19] = tested on: ECHCG; experiment: Post-emergence herbicidal action, ECHCG; conditions: 80 g/ha, Table C
# Summary of the method: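 Weed and crop plants grown in sandy loam in the greenhouse, treated at the one-leaf stage 2–3 weeks after sowing. Damage scored visually after about 3 weeks vs untreated controls (0% = control, 100% = dead).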
# [20] = tested on: Avena fatua; experiment: Pre-emergence herbicidal action, AVEFA; conditions: for Herbicidal efficacy against AVEFA: Table L
# Summary of the method: as §1
# [21] = tested on: Pharbitis purpureum; experiment: Post-emergence herbicidal action, PHBPU; conditions: 80 g/ha, Table D
# Summary of the method: as §4
# [22] = tested on: Abutilon theophrasti; experiment: Pre-emergence herbicidal action, ABUTH; conditions: dosage 320 g/ha, scored visually after 3 weeks vs untreated controls
# Summary of the method: as §1
# [23] = dosage 320 g/ha, scored visually after 3 weeks vs untreated controls
Compound,Herbicidal efficacy against VIOTR ([1]; dosage 80 g/ha),herbicidal activity VIOTR ([1]; dosage 320 g/ha),Herbicidal efficacy against MATIN [2],herbicidal activity AMARE [3],Herbicidal efficacy against CYPES ([4]; dosage 80 g/ha),Herbicidal efficacy against POLCO ([5]; dosage 80 g/ha),herbicidal activity SETVI [6],Herbicidal efficacy against SETVI [6],Herbicidal activity STEME [7],herbicidal activity MATIN [8],Herbicidal activity STEME [9],Herbicidal efficacy against LOLMU ([10]; dosage 80 g/ha),Herbicidal efficacy against VERPE [11],Herbicidal efficacy against ALOMY ([12]; dosage 80 g/ha),herbicidal activity AMARE [14],herbicidal activity VIOTR [15],Herbicidal efficacy against VIOTR [15],Herbicidal efficacy against SETVI ([16]; dosage 80 g/ha),herbicidal activity ABUTH [17],Herbicidal efficacy against AVEFA [18],other results
CSc1c(C(F)F)ccc(C(=O)Nc2nnc(C)o2)c1C [Example 7-1],90,100%,40,100%,60,30,100%,100,90%,80%,80%,0,90,60,100%,100%,100,70,100%,40,"Herbicidal efficacy against VIOTR ([1]; dosage 320 g/ha): 100; Herbicidal efficacy against CYPES ([4]; dosage 320 g/ha): 70; Herbicidal efficacy against POLCO ([5]; dosage 320 g/ha): 40; Herbicidal efficacy against LOLMU ([10]; dosage 320 g/ha): 30; Herbicidal efficacy against ALOMY ([12]; dosage 320 g/ha): 70; herbicidal activity ALOMY ([13]; 80 g/ha, Table C): 90%; Herbicidal efficacy against ALOMY ([13]; dosage 20 g/ha, Table M): 70; Herbicidal efficacy against SETVI ([16]; dosage 320 g/ha): 100; Herbicidal activity ECHCG [19]: 100%; Herbicidal efficacy against AVEFA ([20]; dosage 80 g/ha): 20; Herbicidal efficacy against AVEFA ([20]; dosage 320 g/ha): 70; Herbicidal activity PHBPU [21]: 90%"
Cc1nnc(NC(=O)c2ccc(C(F)F)c([S+](C)[O-])c2C)o1 (stereo not shown) [Example 7-2],100,100%,70,100%,80,30,100%,100,100%,90%,80%,10,100,80,100%,100%,100,90,100%,70,"herbicidal activity CYPES [4, 23]: 90%; herbicidal activity ABUTH [22]: 100%; herbicidal activity ALOMY [12, 23]: 90%; herbicidal activity SETVI [16, 23]: 100%; herbicidal activity AVEFA ([18]; 80 g/ha, Table C): 90%; Herbicidal activity ECHCG [19]: 90%; Herbicidal efficacy against AVEFA ([20]; dosage 80 g/ha): 70; herbicidal activity AVEFA [20, 23]: 90%; Herbicidal activity PHBPU [21]: 90%"
